Data published in patent US9326972B2, “Use of phenylmethimazoles, methimazole derivatives, and tautomeric cyclic thiones for the treatment of autoimmune/inflammatory diseases associated with toll-like receptor overexpression” (Ohio University, priority 2004, dated 2016).

Tests used:
[1] = system: IRF-3; assay: IRF-3 transactivation cis reporter in FRTL-5 thyrocytes; assay type: cell-based, rat; conditions: FRTL-5, 6 hours, 0.5 mM C-10
Method: FIG. 5. Phenylmethimazole (CIO) and Methimazole (MMI) inhibit the ability of Poly (I:C), lipopolysaccharide (LPS) and IL-1β to increase IFN-β gene expression (Top Left) and IRF-3 transactivation (Top Right) in FRTL-5 thyrocytes. (Top Left) Cells were co-transfected with IFNβ-Luc and control vector (pRLTk-Int), then treated with or without (−) Poly (I:C) (100 μg/ml), LPS (100 ng/ml), or IL-1β (10 ng/ml) in the presence of the vehicle (DMSO) alone (−), C10, or MMI for 6 hours. Data was obtained with the Dual Luciferase Assay system. (Top Right) Cells were co-transfected with Gal4 DBD/IRF-3 and Gal4-Luc then treated with nothing (−), poly (I:C), LPS, or IL-1β as in (Top Left) in the presence of DMSO or C10 for 6 hours. Data was obtained by Luciferase assay. Also shown is a graphic depiction (Bottom) of how the cis reporting system is working. Data are representative of multiple experiments.
We measured the ability of C10 to inhibit IRF-3 transactivation activity in FRTL-5 thyrocytes, using the IRF-3 cis reporter system (FIG. 5, bottom).
Plasmids for Reporter Gene Assays. Human IRF-3 was amplified from human cDNA and cloned into pCR 2.1 by the TOPO/TA (Invitrogen, Carlsbad, Calif.) cloning method, and then sequenced. IRF-3 was then excised by EcoRI digestion and subcloned into pCMV-BD (Stratagene, La Jolla, Calif.) for use in transactivation assays. […]

[2] = system: serum cytokines; assay: Serum pro-inflammatory cytokines in LPS-treated mice (ELISA); assay type: in vivo, mouse; conditions: LPS-treated mice of Table 5
Method: Quantification of pro-inflammatory cytokines in blood: The cytokines TNF-α, IL-1β, IL-6, IFN-γ and IL-12 were quantified in serum using ELISA techniques. Blood was collected from the inner canthus of the eye under anesthesia and serum saved at −20° C. until use. The ELISA kits were from R&D System and the results were expressed in pg/ml serum.

[3] = system: TLR4 signaled genes; assay: Gene expression in organs of LPS-treated mice (Northern, RT-PCR); assay type: in vivo, mouse
[4] = system: ICAM-1 and VCAM-1; assay: Histology and ICAM-1/VCAM-1 immunohistochemistry in organs of LPS-treated mice; assay type: in vivo, mouse
Method: Histology: Tissue from liver, lung, kidney and heart from normal, LPS and LPS plus C-10 treated mice (experiment in Table 5), were fixed in 4%-PBS-formalin overnight. They then were dehydrated serially in alcohols 50%-70%-90%-100%, clarified in chloroform, and embedded in paraffin. Five (5) sections were obtained and mounted on Vectabond™ (Vector Laboratories, Inc. Burlingame, Calif.) pretreated slides. The sections were incubated twice (10 minutes each) in xylol and re-hydrated by serial alcohol treatments, 100%-90-70-50, followed by distilled water. Tissues were stained with Hematoxylin-Eosin using standard protocols, mounted, and observed by optical microscopy in a double blind manner.
Immunohistochemistry (IHC): C10 (pMMI) effects on the over-expression of adhesion molecules induced by LPS were studied in different organs. […] At 18 h after LPS injection, mice were sacrificed and the heart, lung, liver spleen and kidney were removed and fixed in 4% formalin in PBS. The tissue was then dehydrated in serial alcohols (50% v/v, twice; 70% v/v, twice; 80% v/v, twice; 95% v/v, twice; and 100% v/v, twice), cleared in pure chloroform, embedded in paraffin and sectioned ([…] thickness) and mounted on Vectabond™ (Vector Laboratories, Inc. Burlingame, Calif.) pre-treated slides. […]

[5] = system: HAEC; assay: IFN-β-induced IRF-1 and Stat1 phosphorylation in human aortic endothelial cells (immunoblot); assay type: cell-based

## Cn1c(-c2ccccc2)cnc1S [Compound C10, 5-Phenylmethimazole]
[1]
  IRF-3 transactivation by poly (I:C), LPS, or IL-1β: inhibited
[2]
  serum cytokine levels (IL-1β, IL-6, TNF-α, IFN-γ, IL-12) by ELISA: reduced these cytokine levels to levels in normal control mice
[3]; LPS injected mice at 24 hours, Northern
  pro-inflammatory cytokine gene expression (TNF α, IL-1β, IL-6, IL-12, IFN γ) in spleen, liver, lung, kidney, heart: suppressed
[3]; LPS-treated mice of Table 5, Northern
  LPS-induced over-expression of IRF-1, IP-10 and MCP-1 RNA in organs: suppressed
[3]; kidney, liver and lung, RT-PCR
  LPS-elevated COX-2 RNA levels: completely suppressed and returned to normal
[3]; organs of LPS treated mice, RT-PCR
  LPS-down-regulated COX-1 RNA levels: returned RNA levels to the normal levels
[3]; spleen, liver, lung, kidney, heart, RT-PCR
  LPS-increased iNOS RNA levels: suppressed
[4]; H&E, 18 hours
  microcirculatory damage and inflammatory cellular infiltration in lung: ameliorated
[4]; immunohistochemistry
  ICAM-1 and VCAM-1 over-expression on endothelial cells (lung, liver): suppressed
[5]; 100 U/mL hIFN-β 2 hours, 1 mM C10
  Stat1 serine phosphorylation at residue 727: decreased
[5]; 2 hours, C10 1 mM
  IFN-β induced Stat1 phosphorylation (Y701): decrease
  IFN-β induction of IRF-1 protein: strongly decreased
